“Also recorded” adds a separate entry of the source.
What was measured:
[1] = target: T1, PKD2 (Homo sapiens, UniProt Q13563); experiment: P. pastoris PKD2 Ca2+-dependent yeast growth assay (Stage 1); assay type: cell-based; conditions: P. pastoris strain Y5634; read-out: EC50, yeast growth dependent on stimulation of PKD2 cation transport
T1 sequence (Q13563 1-968): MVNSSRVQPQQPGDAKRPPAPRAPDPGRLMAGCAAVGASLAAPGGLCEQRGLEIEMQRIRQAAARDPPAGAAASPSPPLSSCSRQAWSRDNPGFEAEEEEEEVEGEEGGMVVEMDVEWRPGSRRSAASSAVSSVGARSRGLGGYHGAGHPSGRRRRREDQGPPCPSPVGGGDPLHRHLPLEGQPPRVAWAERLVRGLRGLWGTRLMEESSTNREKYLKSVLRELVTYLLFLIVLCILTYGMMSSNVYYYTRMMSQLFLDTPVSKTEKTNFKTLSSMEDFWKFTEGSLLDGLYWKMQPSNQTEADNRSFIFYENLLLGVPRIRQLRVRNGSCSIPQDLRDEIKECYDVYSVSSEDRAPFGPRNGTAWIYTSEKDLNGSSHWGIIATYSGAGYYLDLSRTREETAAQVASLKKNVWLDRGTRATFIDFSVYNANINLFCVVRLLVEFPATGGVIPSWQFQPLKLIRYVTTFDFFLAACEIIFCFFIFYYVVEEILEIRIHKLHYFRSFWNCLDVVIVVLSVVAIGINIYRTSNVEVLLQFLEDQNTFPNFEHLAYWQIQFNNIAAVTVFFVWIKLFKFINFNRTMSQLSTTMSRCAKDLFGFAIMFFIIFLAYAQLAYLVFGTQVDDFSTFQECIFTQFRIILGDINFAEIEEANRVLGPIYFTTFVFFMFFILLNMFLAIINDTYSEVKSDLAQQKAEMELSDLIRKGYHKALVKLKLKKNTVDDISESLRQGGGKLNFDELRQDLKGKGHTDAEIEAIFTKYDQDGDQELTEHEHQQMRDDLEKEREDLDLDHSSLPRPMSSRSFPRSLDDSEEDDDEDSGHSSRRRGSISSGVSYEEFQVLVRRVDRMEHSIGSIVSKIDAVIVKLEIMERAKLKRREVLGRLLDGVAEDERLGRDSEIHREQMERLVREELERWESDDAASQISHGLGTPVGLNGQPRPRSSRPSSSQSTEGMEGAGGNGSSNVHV
Source text: (§1) FIG. 31. […] Top, the screening of each stage. […] Bottom, cilia Ca^2+ responses from cells with PKD2 present and knocked out using CRISPR=Cas9 (N=17 cells each). D, E) Stage 3 (Cilia Electrophysiology): image of a patched cilia from collecting ducts and corresponding PKD2-dependent current activated by NS1643.
(§2) Our screening strategy included three stages. (See FIG. 31). In Stage 1 of our screening assay, we utilized cyst cells in a P. pastoris (strain YS634) PKD2 Ca^2+-dependent yeast growth assay. P. pastoris growth is dependent on induction and stimulation of PKD2 ion transport by test compounds including NS1643, calmidazolium, and W-13. In Stage 2, we measured PKD2 activation by the test compounds using increased ciliary Ca2+ fluorescence and membrane potential from human kidney collecting duct cells in which PKD2 had been knocked out by CRISPR-Cas9. In Stage 3, we assessed activation of polystin-2 dependent currents by the test compounds via imaging of patched cilia from collecting ducts and measuring change in current versus voltage. […] (See FIG. 32).

[2] = target: T1, PKD2; experiment: Cilia electrophysiology of patched cilia from collecting ducts (Stage 3); assay type: cell-based
Source text: as §1, §2

[3] = target: T1, PKD2; experiment: PKD2 conductance assay; assay type: cell-based
Source text: FIG. 35. Conductance of PKD2 in the presence of test compounds CAS Number 57265-65-3 (calmidazolium (CMZ)), CAS Number 617-27-0 (W-13), and CAS Number 448895-37-2 (NS1643)
We also tested the additional compound CAS Number 57265-65-3 (calmidazolium (CMZ)), the compound CAS Number 617-27-0 (W-13), and NS1643 in a PKD2 conductance assay.

[4] = target: T1, PKD2; experiment: Three stage testing strategy for PKD2 activators; assay type: cell-based; conditions: three screening stages
Source text: as §1
The polycystin pharmacophore remains outstanding because these channels localize to the primary cilium—an antenna-like organelle that requires innovative tools to study. To address this knowledge gap, our laboratory has established a series of cilia-specific channel activity reporters (voltage and calcium reporters) and model systems (poly cystin-dependent yeast growth) which will be used in a three-stage drug screen to characterize the pharmacology of polycystins. We screened a commercially available chemical library containing 384 compounds for activity against wild type polycystins, and identified three channel activators. […]
Our screening strategy included three stages. […] In Stage 2, we measured PKD2 activation by the test compounds using increased ciliary Ca2+ fluorescence and membrane potential from human kidney collecting duct cells in which PKD2 had been knocked out by CRISPR-Cas9. In Stage 3, we assessed activation of polystin-2 dependent currents by the test compounds via imaging of patched cilia from collecting ducts and measuring change in current versus voltage. […]

[5] = target: T1, PKD2; experiment: Cilia Ca2+ fluorescence (smo-GCaMP3), Stage 2; assay type: cell-based; set-up: cilia Ca^2+ responses from cells with PKD2 present and knocked out using CRISPR=Cas9; endogenous in cells; host or cells: human kidney collecting duct cells expressing the smo-GCaMP3 cilia reporter; conditions: smo-GCaMP3, human kidney collecting duct cells; read-out: EC50, increased ciliary Ca2+ fluorescence
Source text: as §1, §2

[6] = target: T2, human polycystin-2 CTD EF hand (I704-P797) (Homo sapiens, UniProt Q13563); experiment: Isothermal titration calorimetry of divalent ions into the CTD of polycystin-2; assay type: binding
T2 construct: The C-terminal fragment of the human polycystin-2 (I704-P797) was cloned into the PET19b vector; 10xHis (N); made in house; host or cells: E. coli BL21 (DE3)
T2 sequence (Q13563 704-797): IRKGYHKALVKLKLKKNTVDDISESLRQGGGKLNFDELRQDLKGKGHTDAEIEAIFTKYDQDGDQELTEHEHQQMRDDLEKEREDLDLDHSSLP
Protocol: CTD protein expression, purification, and isothermal titration calorimetry. The C-terminal fragment of the human polycystin-2 (I704-P797) was cloned into the PET19b vector and transformed into BL21 (DE3) competent cells (New England Biolabs) for bacterial expression. The translated peptide has a 10×His tag on its N-terminus. The alanine mutants of the individual calcium-coordinating residues were created and transformed as well. Cells were grown in 2XYT broth in a 37° C. shaking incubator until OD600 reaches ˜0.6, and were induced by 0.4 mM isopropyl 1-thio-β-D-galactopyranoside and grown for another 4 hours. Cells were harvested and resuspended in Buffer A (500 mM NaCl, 20 mM Tris/HCl, pH 7.4), 5% glycerol, 0.25 mM EDTA pH 8.0, 1 mM PMSF (RPI), 25 μg/ml of lysozyme and DNase I (GoldBio). The suspension was then lysed by sonication and clarified by centrifugation (30,000×g for 0.5 h). Filtered supernatant was loaded into a HisPur cobalt Superflow agarose column (ThermoScientific). The column was washed with 10 column volume (CV) of buffer A, 5 CV of buffer A+5 mM imidazole, and finally eluted with 3 CV of buffer A+100 mM imidazole. The eluate was desalted by dialysis in 150 mM NaCl, 20 mM Tris/HCl, 20 mM imidazole, pH 7.4. SDS-PAGE gel confirmed the expression, solubility, and purity of the peptide. All of our solutions were formulated with ultrapure water (Milli-Q® IQ 7005 water purification system), that has less than 0.29 ng/L calcium ions present. The binding affinity is recorded based on the heat difference between the sample cell and reference cell measured by MicroCal iTC200. […] The cells were insulated by an adiabatic jacket held at 25° C. The heat of dilution of Ca^2+ was not subtracted from data sets, as the signal was prohibitively small for several of the mutant channels. The exothermic energy of the bimolecular interaction between Ca^2+ and peptide during each injection was analyzed by integrating the change in heat to generate the binding isotherm. […]

[7] = target: T3, polycystin-2 (Homo sapiens, UniProt Q13563); assay type: cell-based; conditions: 10 μM, voltage ramps
T3 construct: expressed in transfected cells
T3 sequence (Q13563 1-968): T1 sequence (Q13563 1-968)
Source text: Generation of HEK PKD2^Null cells line and the stable expression PKD2 variants. To generate the HEK PKD2^Null cell lines, we used a CRISPR/Cas9 gene editing kit available from Addgene (kit 1000000055). HEK 293 cells were electro-transfected with sgRNAs (caccg[…] and aaac[…]c) with the All-in-one Cas9 plasmid. […] Cells generated from single cell clones were selected after 4 weeks of expansion in a 96-wells plate. […] To generate the WT and variant PKD2 GFP or mCherry C-terminally tagged variant cell lines, the hPKD gene was subcloned into lentiviral pLVX-mcherry-N1 (Clontech) or pLVX-GFP-N1 (Clontech) vector using the Gibson assembly method. A linker encoding for six glycine residues was added between the PKD2 gene and the C-terminal tags, and missense variants were generated using standard, site-directed mutagenesis. The third-generation lentiviral packaging plasmids used for stable expression contained: pMDLg/pRRE (Addgene), […] pRSV-Rev (Addgene), and envelope expressing plasmid pMD2.G (Addgene). LentiX-293T cells (Takara) were transfected with polyethylineimine (Polysciences) at a 4:1:1:1 ratio of the transgene and viral packaging constructs. Supernatants were collected 48 and 72 hours post transfection and filtered through a 0.45 μm syringe filter. Lentiviral supernatant was concentrated 100 times using 1 volume of PEG-it (System Biosciences) virus precipitation solution and 4 volume of lentivirus-containing supernatant. The PEG-it and supernatant mixture were kept at 4 degrees for 24 hours and centrifuged at 1500 rpm for 30 minutes. The pellet containing lentivirus was resuspended with 1/100th volume of PBS of the original supernatant volume. HEK cells were infected with the lentivirus supernatant; PKD2-GFP or PKD2-mCherry expression was selected using culture media containing puromycin (2 μg/ml) for 30 to 90 days. Cells were then fluorescence-activated cell sorted (BD FacsMelody) at 5000 to 10,000 counts per minute to enrich for the transgene expression. Stable cell lines were cultured in Dulbecco's modified essential medium (DMEM) supplemented with 10% fetal bovine serum (FBS) and 100 units/ml penicillin, 100 units/ml streptomycin and 1 μg/ml puromycin selection antibiotic.
(§3) Electrophysiology. Ciliary ion currents were recorded using borosilicate glass electrodes polished to resistances of 14-22 MΩ using the cilium patch method previously described^32. Whole cell electrodes used to measure poly cystin-2L1 currents were fire polished to 1.5-4 MΩ resistances. Unless otherwise stated, whole cilia ionic currents were recorded in symmetrical [Na^+]. The pipette standard internal solution contained (in mM): 90 NaMES, 10 NaCl, 10 HEPES, 10 Na4-BAPTA (Glycine, N, N′-[1,2-ethanediylbis(oxy-2,1-phenylene)]bis[N-(carboxymethyl)]-,tetrasodium); pH was adjusted to 7.3 using NaOH. Standard bath solution contained 140 NaCl, 10 HEPES, 1.8 CaCl2); pH 7.4. All solutions were osmotically balanced to 295 (±6) mOsm with mannitol. Extracellular solutions containing TCEP and GSH were used within six hours of formulation. Data were collected using an Axopatch 200B patch clamp amplifier, Digidata 1440A, and pClamp 10 software. Whole-cilium and excised patch currents were digitized at 25 kHz and low-pass filtered at 10 kHz. In the whole cilium configuration, the holding potential was −60 mV and then depolarized using a 400 ms voltage ramp from −100 mV to 100 mV. The whole cell recordings of polycystin-2L1 currents were either activated by the same ramp protocol or by 100 ms depolarizations to 100 mV from a −100 mV holding potential.

[8] = system: polycystin-2L1; assay type: cell-based; conditions: 10 μM, plasma membrane of HEK cells
Protocol: as §3, with “potential. External conditions were controlled using a Warner Perfusion Fast-Step (SF-77B) system in which the patched cilia and electrode were held in the perfusate stream. Data were analyzed by Igor Pro 7.00 (Wavemetrics, Lake Oswego, Oreg.). The polycystin-2 open probability and the polycystin-2L1 tail current-voltage relationships were fit to a Boltzmann function, f(x)=1/(1+exp[V−V1/2]/k) to estimate voltage of half-maximal activation of current (V1/2).” for “potential.”

O=C(Nc1cc(C(F)(F)F)ccc1O)Nc1cc(C(F)(F)F)ccc1O [NS1643, 1,3-bis[2-hydroxy-5-(trifluoromethyl)phenyl]urea]
EC50 [1]: 1100 nM
PKD2-dependent current [2]: activated
PKD2 conductance [3]: increased PKD2 conductance
Identification as PKD2 activator [4]: identified as an activator of PKD2 activity; also recorded: exemplary PKD2 activator
EC50 [5]: 2300 nM

[Mg+2] [Mg^2+]
Affinity of other divalent ions for polycystin-2 EF hand [6]: did not have affinity

NCCCCCCNS(=O)(=O)c1cccc2c(Cl)cccc12 [W-13, N-(6-Aminohexyl)-5-chloro-1-naphthalenesulfonamide]
PKD2 conductance [3]: increased PKD2 conductance

[La] [lanthanum]
Block of ciliary WT polycystin-2 currents by trivalent ions [7]: blocked
Block of polycystin-2L1 currents by trivalent ions [8]: blocked

[Zn+2] [Zn^2+]
Affinity of other divalent ions for polycystin-2 EF hand [6]: did not have affinity
